These results are taken from US8471032B2, “Benzimidazole compound in crystal form and salt thereof” (Mitsubishi Tanabe Pharma Corporation, priority 2008, dated 2013).

Series [1] in a line: Solubility in water at 37° C. (HPLC, calibration curve method). The class given is physicochemical. Conditions: shaken for 4 hr. On the procedure:
The solubility of the obtained compounds in water at 37° C. was measured under the following conditions. An adequate amount of each sample was taken, water was added to each sample, and the mixture was shaken at 37° C. for 4 hr. The supernatant was filtered through a filter, and diluted with a mixed solution of TFA/acetonitrile/water=(0.05:30:70) as necessary to give a sample solution. The concentration (mg/ml) of the sample solution was measured by high performance liquid chromatography (HPLC) with a calibration curve method, and taken as the solubility in water at 37° C.
apparatus: HPLC System Class-VP (SHIMADZU Corporation)
detector: photodiode array detector
measurement wavelength range: 200-370 nm
column: Inertsil ODS-3V (4.6 mm9×150 mm)
column temperature: 40° C.
mobile phase: SOLUTION A 0.05% aqueous trifluoroacetic acid solution • SOLUTION B 0.05% trifluoroacetic acid-acetonitrile solution • A:B=70:30 (Isocratic Elution)

Series [2] in a line: Water adsorption measurement (DVS-1 water adsorption apparatus), index of hygroscopicity. In kind it is physicochemical. Conditions: relative humidity changed within 0% to 95%; amount of change based on the weight at relative humidity 0%. On the procedure:
The water adsorption measurement, which becomes an index of hygroscopicity, was performed using a DVS-1 type water adsorption apparatus (manufactured by SMS) under the following conditions. Using a sample (about 6-12 mg), the relative humidity was changed within the relative humidity range of 0% to 95%. The weight change was recorded for each predetermined relative humidity, and converted to the amount of change (%) based on the weight at relative humidity 0%. […] As to this compound, the zero point was amended based on the moisture value of the sample measured by the Karl Fischer's method, and the weight change was converted to the amount of change (%).

Each structure is given as a SMILES string. ≈ marks a conversion by molar mass, not a printed value.

On to `CNC(=O)Cn1c(=O)n(C2CCN([C@@H]3Cc4cccc5cccc3c45)CC2)c2ccccc21` [Example 16, (R)-2-{3-[1-(acenaphthen-1-yl)piperidin-4-yl]-2,3-dihydro-2-oxo-benzimidazol-1-yl}-N-methylacetamide], for which the solubility in water in series [1] worked out at 0.01 mg/mL (≈ 22.7 µM). With `CNC(=O)Cn1c(=O)n(C2CCN([C@@H]3Cc4cccc5cccc3c45)CC2)c2ccccc21` [Example 10, (R)-2-{3-[1-(acenaphthen-1-yl)piperidin-4-yl]-2,3-dihydro-2-oxo-benzimidazol-1-yl}-N-methylacetamide], the solubility in water in series [1] came to 0.3 mg/mL (≈ 681 µM). In addition, the “weight increase (water adsorption / moisture absorption)” value in series [2] came to 1.3%.

`CNC(=O)Cn1c(=O)n(C2CCN([C@@H]3Cc4cccc5cccc3c45)CC2)c2ccccc21` [Example 6, (R)-2-{3-[1-(acenaphthen-1-yl)piperidin-4-yl]-2,3-dihydro-2-oxo-benzimidazol-1-yl}-N-methylacetamide] returned a solubility in water in series [1] greater than 2 mg/mL. Also, in series [2], the “weight increase (water adsorption / moisture absorption)” value was 0.4%. Molecule `CNC(=O)Cn1c(=O)n(C2CCN([C@@H]3Cc4cccc5cccc3c45)CC2)c2ccccc21` [Example 1, (R)-2-{3-[1-(acenaphthen-1-yl)piperidin-4-yl]-2,3-dihydro-2-oxo-benzimidazol-1-yl}-N-methylacetamide] gave a solubility in water in series [1] greater than 2 mg/mL. Also, the “weight increase (water adsorption / moisture absorption)” value in series [2] is recorded as 0.2%.

`CNC(=O)Cn1c(=O)n(C2CCN([C@@H]3Cc4cccc5cccc3c45)CC2)c2ccccc21` [Example 17, (R)-2-{3-[1-(acenaphthen-1-yl)piperidin-4-yl]-2,3-dihydro-2-oxo-benzimidazol-1-yl}-N-methylacetamide]: the solubility in water in series [1] was determined as 0.01 mg/mL (≈ 22.7 µM). For `CNC(=O)Cn1c(=O)n(C2CCN([C@@H]3Cc4cccc5cccc3c45)CC2)c2ccccc21` [Example 8, (R)-2-{3-[1-(acenaphthen-1-yl)piperidin-4-yl]-2,3-dihydro-2-oxo-benzimidazol-1-yl}-N-methylacetamide], the “weight increase (water adsorption / moisture absorption)” value in series [2] is listed as 2.0%. Still for that read-out and setting: the value for `CNC(=O)Cn1c(=O)n(C2CCN([C@@H]3Cc4cccc5cccc3c45)CC2)c2ccccc21` [Example 2, (R)-2-{3-[1-(acenaphthen-1-yl)piperidin-4-yl]-2,3-dihydro-2-oxo-benzimidazol-1-yl}-N-methylacetamide] was 0.2%.
